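Assay format: 96-well plates, 48-hour exposure. TGI: concentration producing complete growth inhibition.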
Legend:
Test in all cases: NCI tumour cell line growth inhibition, 48 h
HOP-92 NSCLC = test system: HOP-92 NSCLC
SF-295 CNS = test system: SF-295 CNS
IGROV1 ovarian = test system: IGROV1 ovarian
MOLT-4 leukemia = test system: MOLT-4 leukemia
SR leukemia = test system: SR leukemia
SNB-19 CNS = test system: SNB-19 CNS
MDA-N = test system: MDA-N
ACHN renal = test system: ACHN renal
HS 578T breast = test system: HS 578T breast
PC-3 prostate = test system: PC-3 prostate
COLO 205 colon = test system: COLO 205 colon
SN12C renal = test system: SN12C renal

| Compound | TGI (HOP-92 NSCLC) [µM] | TGI (SF-295 CNS) [µM] | TGI (IGROV1 ovarian) [µM] | TGI (MOLT-4 leukemia) [µM] | TGI (SR leukemia) [µM] | TGI (SNB-19 CNS) [µM] | TGI (MDA-N) [µM] | TGI (ACHN renal) [µM] | TGI (HS 578T breast) [µM] | TGI (PC-3 prostate) [µM] | TGI (COLO 205 colon) [µM] | TGI (SN12C renal) [µM] |
| --- | --- | --- | --- | --- | --- | --- | --- | --- | --- | --- | --- | --- |
| C[C@H]1S[C@H](c2c(Cl)cccc2Cl)N2Cc3ccccc3N=C12 | > 100 | 21.9 | 26.1 | > 100 | > 100 | 23.3 | > 100 | 26.5 | 42.3 | 37.7 | 25.2 | > 100 |
| CCOC(=O)Oc1ccc2c(c1)c(=O)c1c(NCCN(CC)CC)ccc3nnn2c31 | 21.4 | 19.5 | 21.7 | 13.6 | 12.9 | 15.9 | 15.6 | 11.6 | 22.9 | 15.1 | 14.9 | 15.1 |
| Fc1cccc(F)c1C1SCc2nc3ccc(Cl)cc3n21 (stereo unspecified) | > 100 | > 100 | > 100 | > 100 | > 100 | > 100 | > 100 | > 100 | > 100 | > 100 | > 100 | > 100 |
| COc1ccc(-n2sc3ncccc3c2=O)cc1 | 58.6 | > 100 | 61.2 | > 100 | 55.1 | > 100 | 40.7 | 34.5 | 62.8 | 53.5 | 35 | 91.3 |
| Cn1c(N/N=C/c2ccccc2)nc(-c2ccc([N+](=O)[O-])cc2)c(C#N)c1=O | 80.6 | > 100 | > 100 | > 100 | > 100 | > 100 | > 100 | > 100 | > 100 | > 100 | > 100 | > 100 |
| C(=C\N1CCCCC1)/c1nnnn1-c1ccccc1 | > 100 | 66.9 | 82.8 | 41.9 | 55 | > 100 | > 100 | > 100 | 49.4 | > 100 | > 100 | > 100 |
| CCOc1cc(NC(C)=O)ccc1C(=O)NN1C(=O)CSC1c1ccccc1 (stereo unspecified) | > 100 | > 100 | > 100 | 58.2 | > 100 | > 100 | > 100 | > 100 | > 100 | > 100 | > 100 | > 100 |
| O=C1Nc2ccccc2/C1=c1\[nH]c(=O)/c(=C\c2ccc(OCc3ccccc3)cn2)[nH]c1=O | 76.8 | 50.5 | > 100 | > 100 | 69.4 | > 100 | > 100 | > 100 | 70.1 | > 100 | > 100 | > 100 |
| N#C[C@H](c1nc2ccccc2s1)c1nc2ccccc2nc1Cl | 37.9 | 35.7 | > 100 | > 100 | > 100 | > 100 | > 100 | 29.8 | > 100 | > 100 | > 100 | > 100 |
| C[Si](C)(C)C1=C([Si](C)(C)C)C(Cl)(Cl)C1=O | 5.55 | 22.3 | 16.1 | 3.45 | 5.46 | 36.5 | 5.39 | 4.9 | 55.7 | 12.9 | 4.87 | 15.8 |
| CN(C)c1cccc(NC2=NCCO2)c1 | > 100 | > 100 | > 100 | > 100 | 99.6 | > 100 | 32.8 | > 100 | > 100 | > 100 | 41.3 | > 100 |
| CC1(C)CC(=O)C2=C(C1)OC1=C(CC(C)(C)CC1=O)C2c1ccccc1[N+](=O)[O-] (stereo unspecified) | > 100 | > 100 | > 100 | > 100 | > 100 | > 100 | > 100 | > 100 | > 100 | > 100 | > 100 | > 100 |
| C[C@@H]1S[C@H](c2c(Cl)cccc2Cl)N2Cc3ccccc3N=C12 | > 100 | > 100 | > 100 | > 100 | > 100 | > 100 | > 100 | > 100 | > 100 | > 100 | > 100 | > 100 |

— PubChem BioAssay (NCI)
